These are literature values, as cited in US20220287347A1, “PEPTIDES FOR TREATING MUSCLE ATROPHY” (NURITAS LIMITED, priority 2019, published 2022).

For data set [1] the following is noted: binding to lipoproteins.

By fraction unbound is commonly meant the share of the substance not bound to proteins or other matrix. `C[C@@H](O)[C@@H]1NC(=O)[C@H](CCCCN)NC(=O)[C@@H](Cc2c[nH]c3ccccc23)NC(=O)[C@H](Cc2ccccc2)NC(=O)[C@@H](NC(=O)[C@H](N)Cc2ccccc2)CSSC[C@@H](C(=O)N[C@H](CO)[C@@H](C)O)NC1=O` [octreotide]: the half-life in humans result is given as “about 100 min”. In addition, the free fraction (fraction unbound) in data set [1] is recorded as 0.65.

On to `NC(=O)CC[C@@H]1NC(=O)[C@H](Cc2ccccc2)NC(=O)[C@H](Cc2ccc(O)cc2)NC(=O)[C@@H](N)CSSC[C@@H](C(=O)N2CCC[C@H]2C(=O)N[C@@H](CCCN=C(N)N)C(=O)NCC(N)=O)NC(=O)[C@H](CC(N)=O)NC1=O` [vasopressin], for which the half-life in humans was 10 to 35 min.
